From US11679107B2 (Eisai R&D Management Co., Ltd., priority 2018, dated 2023)
Read-outs that look alike come from different tables or passages of the source.

Tests used:
SF3b complexes = target: T1, SF3b complexes (Homo sapiens, UniProt O75533+Q7RTV0); assay: Scintillation proximity assay (SPA) with [3H]-labelled pladienolide probe; type: binding; conditions: SF3B1 (WT); geometric mean; read-out: SPA-ATS GMean IC50 (nM) SF3B1 (WT)
T1 construct: endogenous in cells; host or cells: Nuclear extracts; A HeLa S3 extract preparation is described for the in vitro splicing assay
Experimental: Scintillation Proximity Assay (SPA) with [^3-H]-Labelled Pladienolide Probe
(§1) Batch immobilization of anti-SF3B1 antibody (MBL) to anti-mouse PVT SPA scintillation beads (PerkinElmer) was prepared as follows: for every 2.5 mg of nuclear extracts, 5 μg anti-SF3B1 antibody and 1.5 mg of beads were mixed in 150 μl PBS. The antibody-bead mixture was incubated for 30 min at RT and centrifuged at 18,000 g for 5 min. 150 μl PBS was used to resuspend every 1.5 mg antibody-bead mixture. The beads were suspended and added to the prepared nuclear extracts. The slurry was incubated for 2 h at 4° C. with gentle mixing. The beads were then collected by centrifuging at 18,000 g for 5 min, and washed twice with PBS+0.1% Triton X-100. After a final centrifugation step, every 1.5 mg of beads was suspended with 150 μl of PBS. The SF3b complexes were tested for [^3H]-labelled pladienolide probe binding ([^3H]—PB), synthesized as previously described (Kotake et al., 2007). 100 μl binding reactions were prepared with 50 μl bead slurry and by adding varying concentrations of PB or PB—OH, and after 30 min pre-incubation, 2.5 nM [^3H]—PB was added. The mixture was incubated for 30 min, and luminescence signals were read using a MicroBeta2 Plate Counter (PerkinElmer). Prism 6 (Graphpad) was used for non-linear regression curve fitting of the data. • a. • b. HeLa nuclear extract preparation (for in vitro splicing modulation assay below) • c. HeLa S3 cell pellets were resuspended in hypotonic buffer (10 mM HEPES pH 7.9, 1.5 mM MgCl2, 10 mM KCl, 0.2 mM PMSF, and 0.5 mM DTT) and the suspension was brought up to a total of 5 packed cell volume (PCV). After centrifugation, the supernatant was discarded, and the cells were brought up to 3 PCV with hypotonic buffer and incubated on ice for 10 minutes. Cells were lysed using a dounce homogenizer and then centrifuged. The supernatant was discarded, and the pellet was resuspended with ½ packed nuclear volume (PNV) of low salt buffer (20 mM HEPES pH 7.9, 1.5 mM MgCl2, 20 mM KCl, 0.2 mM EDTA, 25% glycerol, 0.2 mM PMSF, 0.5 mM DTT), followed by ½ PNV of high salt buffer (same as low salt buffer except 1.4 M KCl was used). The nuclei were gently mixed for 30 minutes before centrifuging. The supernatant (nuclear extract) was then dialyzed into storage buffer (20 mM HEPES pH 7.9, 100 mM KCl, 0.2 mM EDTA, 20% glycerol, 0.2 mM PMSF, 0.5 mM DTT). Protein concentration was determined using NanoDrop 8000 UV-Vis spectrophotometer (ThermoFisher Scientific). • d. In vitro splicing assay (IVS)

[1] = system: NCI-H1568 cells (high MCL1); assay: Cell proliferation and viability, CellTiter-Glo, 72 hours; type: cell-based; conditions: for GI50: geometric mean
Experimental: (§2) Cell lines were maintained in RPMI-1640 (ATCC 30-2001) supplemented with 10% fetal bovine serum (FBS). The Panc lines were supplemented in addition with insulin and FBS up to 15% total.
(§3) Compounds for assay were prepared as stocks in 90% dimethyl sulfoxide (DMSO), assessed for purity by LC/MS, and serially diluted in DMSO using a low-volume liquid handler (VIAFLO ASSIST and VIAFLO II electronic 16-channel pipette, 0.5-12.5 μL) in an 11-point half-log serial dilution to create a master dose response (MDR) source used for all tests.
(§4) Transfer of compounds from the MDR source plate to cell assay-ready plates were accomplished directly by low-energy acoustic transfer (ATS100, EDC Biosystems). After transfer of compounds to the assay plate, the dose-response range experienced by cells was typically 10 μM-100 pM (5 logs), and final DMSO concentration in the assay was 0.1%, uniformly. Each assay plate was self-anchored containing vehicle/DMSO negative controls, medium-only/positive controls, and cidal control dose-responses of bortezomib and staurosporine. Assay-ready plates were heat-sealed and stored at −20° C. until used, no longer than one month.
(§5) A DMSO-matched time zero (T0) plate was read and then all other plates were incubated at 37° C. with 5% CO2 and 95% relative humidity until the end of assay. Cell proliferation and viability assays were performed 72 hours post-treatment depending on cell growth where at least one doubling would have occurred.
(§6) Assessment of viability and proliferation was by measurement of cell ATP content using CellTiter-Glo® Luminescent Cell Viability Assay reagent (Promega) according to the manufacturer's instructions (CellTiter-Glo® Luminescent Cell Viability Assay Technical Bulletin Instructions for Use of Product(s) G7570, G7571, G7572, G7573 Literature #TB288, Revised March 2015), using a microtiter plate reader (Envision, PE).
(§7) Cell proliferation was evaluated using the time zero (T0) signal as the positive control and the within-plate vehicle wells (DMSO) as the negative control. Data was converted to percent inhibition and falls into the range from −100% to 100% of growth where −100% equals a cidal response and 100% equals uninhibited or maximal growth. Cell growth at or near 0% is considered a static response.

[2] = system: Ad2 variant pre-mRNAs spliced in HeLa S3 nuclear extracts; assay: In vitro splicing assay (IVS), RT-qPCR of spliced product; type: biochemical; conditions: for IC50: geometric mean; for Ratio Ad2.1/2.2: ratio of IVS IC50 Ad2.1 to Ad2.2
Experimental: as §1
All Ad2-derived (Pellizzoni et al., 1998) sequences were cloned into pcDNA3.1(+) vector (Promega) using 5′ EcoRI and 3′ XbaI restriction sites. The plasmids were linearized using XbaI and used as DNA templates in the in vitro transcription reactions. The FtzΔi intron-less plasmid (Luo and Reed, 1999) was linearized using EcoRI. All RNAs were in vitro transcribed and then purified using MEGAScript T7 (Invitrogen) and MegaClear (Invitrogen) kits, respectively. For splicing reactions using Ad2 variant pre-mRNAs, […] reactions were prepared using 8 μg nuclear extracts prepared from HeLa S3, 2 ng pre-mRNA, 0.2 ng FTZΔi, and varying concentrations of exemplary payloads or DMSO. After a 15 minute pre-incubation at 30° C., 1 μL splicing activation buffer (0.5 mM ATP, 20 mM creatine phosphate, 1.6 mM MgCl2) was added, and the reactions were incubated for 90 minutes at 30° C. The reactions were then quenched with 13 μL it DMSO, and 25 nL was used for RT-qPCR. RT-qPCR reactions were prepared using TaqMan RNA-to-CT 1-step kit (Life Technologies), RNA from splicing reactions, Ad2 (forward: […]; reverse: […]; probe: […]) and Ftz (forward: […]; reverse: […]; probe: […]) mRNA primer-probe sets. Prism 6 (Graphpad) was used for non-linear regression curve fitting of the formed spliced product and normalized to the control (DMSO) sample.

[3] = system: Panc 05.04 cells (SF3b K700E mutant); assay: Cell proliferation and viability, CellTiter-Glo, 72 hours; type: cell-based; conditions: for GI50: geometric mean
Experimental: as §2, §3, §4, §5, §6, §7

[4] = 72 h, NCIH1568.1, -100% = cidal, 0% = static, 100% = uninhibited growth
[5] = NCI-H1568, 72 h, read-out: CTGlo-ATS GMean GI50 (nM) 72 h NCIH1568.1, 72 h, NCIH1568.1
[6] = Ad2.1 pre-mRNA substrate, read-out: qPCR-IVS-ATS GMean IC50 (nM) Ad2.1
[7] = Ad2.2 pre-mRNA substrate, read-out: qPCR-IVS-ATS GMean IC50 (nM) Ad2.2
[8] = 72 h, PANC0504.1, -100% = cidal, 0% = static, 100% = uninhibited growth
[9] = Panc 05.04, 72 h, read-out: CTGlo-ATS GMean GI50 (nM) 72 h PANC0504.1, 72 h, PANC0504.1
[10] = PANC0504.1 cells, 72 h, −100% cidal, 0% static, 100% maximal growth
[11] = Panc 05.04, 72 h, read-out: CTGlo-ATS GMean GI50 (nM) 72 h PANC0504.1, PANC0504.1 cells, 72 h
[12] = NCIH1568.1 cells, 72 h, −100% cidal, 0% static, 100% maximal growth
[13] = NCI-H1568, read-out: CTGlo-ATS GMean GI50 (nM) 72 h NCIH1568.1, NCIH1568.1 cells, 72 h
[14] = Panc 05.04, read-out: CTGlo-ATS GMean GI50 (nM) 72 h PANC0504.1, PANC0504.1 cells, 72 h

Structure (SMILES)	IC50 (SF3b complexes)	CTGlo-ATS Mean MinResponse % 72 h NCIH1568.1 [1, 4]	GI50 [1, 5]	IC50 [2, 6]	IC50 [2, 7]	Ratio Ad2.1/2.2 [2]	CTGlo-ATS Mean MinResponse % 72 h PANC0504.1 [3, 8]	GI50 [3, 9]	CTGlo-ATS Mean MinResponse % 72 h PANC0504.1 [3, 10]	GI50 [3, 11]	GI50 ([1]; NCI-H1568, 72 h, read-out: CTGlo-ATS GMean GI50 (nM) 72 h NCIH1568.1, NCIH1568.1 cells, 72 h)	CTGlo-ATS Mean MinResponse % 72 h NCIH1568.1 [1, 12]	GI50 [1, 13]	GI50 [3, 14]
C/C(=C\c1cc(F)cc(N2CCN(C(=O)Cn3cccn3)CC2)c1)[C@H]1OC(=O)C[C@H](O)CC[C@H](C)[C@@H](OC(=O)N2CCC(N(C)C)C2)/C=C/[C@@H]1C (stereo in doubt) [Compound 227, [(2S,3S,4E,6R,7S,10R)-2-[(E)-1-[3-fluoro-5-[4-(2-pyrazol-1-ylacetyl)piperazin-1-yl]phenyl]prop-1-en-2-yl]-10-hydroxy-3,7-dimethyl-12-oxo-1-oxacyclododec-4-en-6-yl] (3S)-3-(dimethylamino)pyrrolidine-1-carboxylate]	3.25 nM	−81.522%	2.37 nM											
C/C(=C\c1cccc(COC(=O)N2CCCC2CO)c1)[C@H]1OC(=O)C[C@H](O)CC[C@H](C)[C@@H](OC(=O)N2CCN(C)CC2)/C=C/[C@@H]1C (stereo in doubt) [Compound 259, [(2S,3S,4E,6R,7S,10R)-10-hydroxy-2-[(E)-1-[3-[[(2R)-2-(hydroxymethyl)pyrrolidine-1-carbonyl]oxymethyl]phenyl]prop-1-en-2-yl]-3,7-dimethyl-12-oxo-1-oxacyclododec-4-en-6-yl] 4-methylpiperazine-1-carboxylate]		−43.329%	133 nM	> 25000 nM	83.1 nM	300.977	−86.489%	31.5 nM						
C/C(=C\c1ccc(F)c(N2CCOCC2)c1)[C@H]1OC(=O)C[C@H](O)CC[C@H](C)[C@@H](OC(=O)N2CCN(C)CC2)/C=C/[C@@H]1C [Compound 8]				14200 nM	42.2 nM				−94.207%	19.3 nM				
C/C(=C\c1cc(F)cc(N2CCC(O)CC2)c1)[C@H]1OC(=O)C[C@H](O)CC[C@H](C)[C@@H](OC(=O)N2CCN(C)CC2)/C=C/[C@@H]1C [Compound 30]				19.1 nM	11 nM				−75.997%	7.02 nM	5.89 nM	−78.664%		
C/C(=C\c1cc(F)cc(N2CCOCC2)c1)[C@H]1OC(=O)C[C@H](O)CC[C@H](C)[C@@H](OC(=O)N(C)Cc2ccncc2)/C=C/[C@@H]1C [Compound 47]				16900 nM	79.6 nM				−87.783%			−44.494%	66.5 nM	78.2 nM
C/C(=C\c1ccc(S(=O)(=O)NC2CC2)c(F)c1)[C@H]1OC(=O)C[C@H](O)CC[C@H](C)[C@@H](OC(=O)N2CCN(C)CC2)/C=C/[C@@H]1C [Compound 90, [(2S,3S,4E,6R,7S,10R)-2-[(E)-1-[4-(cyclopropylsulfamoyl)-3-fluorophenyl]prop-1-en-2-yl]-10-hydroxy-3,7-dimethyl-12-oxo-1-oxacyclododec-4-en-6-yl] 4-methylpiperazine-1-carboxylate]				> 25000 nM	168 nM				−12.315%			−8.495%	107 nM	141 nM
C/C(=C\c1cccc(COC(=O)N2CCC(O)CC2)c1)[C@H]1OC(=O)C[C@H](O)CC[C@H](C)[C@@H](OC(=O)N2CCN(C)CC2)/C=C/[C@@H]1C [Compound 261, [(2S,3S,4E,6R,7S,10R)-10-hydroxy-2-[(E)-1-[3-[(4-hydroxypiperidine-1-carbonyl)oxymethyl]phenyl]prop-1-en-2-yl]-3,7-dimethyl-12-oxo-1-oxacyclododec-4-en-6-yl] 4-methylpiperazine-1-carboxylate]		−36.811%	57.6 nM	23300 nM	76.6 nM	304.222	−89.906%	32.3 nM						
